Source: patent publication US8895585B2, “Nicotinamide derivative or salt thereof” (FUJIFILM Corporation, priority 2010, dated 2014)
Read-outs that look alike come from different tables or passages of the source.

Tests used:
[1] = target: T1, glutathione S-transferase (GST)-fused full-length human Syk protein (Homo sapiens, UniProt P43405); experiment: Syk enzyme assay; type: biochemical; conditions: Syk enzyme assay, Test Example 1; read-out: IC50 of Syk-inhibitory activity
T1 construct: (GST)-fused full-length human Syk protein; GST (glutathione S-transferase); purchased Carna Biosciences
How it was run: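 GST-tagged full-length human Syk (baculovirus) preincubated with compound 15 min at room temperature (pH 7.0, 10 mM MgCl2), then reacted 40 min with 0.4 μM biotinylated peptide substrate and 27 μM ATP (final). Phosphorylation read by HTRF (615/665 nm) after EDTA stop; IC50 reported.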

[2] = test system: THP-1 cells; experiment: TNFα generation assay; type: cell-based, human
Method: THP-1 cells (2×10^5 cells/ml), which were human monocytoid cells, were cultured in the presence of 10 ng/ml IFN-γ (Roche) for 2 days, so that the cells were induced to differentiate into macrophage-like cells. The differentiation-induced THP-1 cells were recovered, and the cells (1×10^6 cell/ml) were then allowed to react with a predetermined concentration of test compound at room temperature for 30 minutes. On the other hand, 100 μl of human IgG (10 μg/ml, SIGMA-ALDRICH) diluted with PBS was added to a 96-well plate, and it was then incubated at room temperature overnight. Thereafter, the resultant was washed with PBS twice to produce a human IgG-coated plate. Subsequently, a cell solution that contained a compound was inoculated on the human IgG-coated plate (5×10^4 cells/well), and it was then cultured for 7 hours. Thereafter, the cultured solution was recovered, and the amount of TNFα secreted into the culture solution was then measured by the ELISA method (Roche/R & D Systems) or the AlphaLISA method (PerkinElmer).

[3] = THP-1 cells, Table 22, read-out: IC50 in TNFα generation assay
[4] = Homo sapiens, THP-1, THP-1 cells, Table 22, read-out: IC50 in TNFα generation assay
[5] = Homo sapiens, THP-1, 7 h, IFN-γ-differentiated THP-1 cells on human IgG-coated plate, cultured 7 hours, read-out: TNFα generation inhibitory activity (IC50)

| IC50 [1] | IC50 [2, 3] | IC50 [2, 4] | IC50 [2, 5] | Compound |
| --- | --- | --- | --- | --- |
| < 10 nM | < 65 nM | – | – | 6-(((2R,3S)-3-aminobutan-2-yl)amino)-2- (3,5-dimethoxyphenyl)amino)-5- fluoronicotinamide 6-(((2S,3R)-3-aminobutan-2-yl)amino)-2- (3,5-dimethoxyphenyl)amino)-5- fluoronicotinamide [Example 006-107] |
| 10 to 50 nM | 65 to 130 nM | – | – | 6-(((2R,3S)-3-aminobutan-2-yl)amino)-2- ((5,6-dimethylpyridin-3-yl)amino)-5- fluoronicotinamide 6-(((2S,3R)-3-aminobutan-2-yl)amino)-2- (5,6-dimethylpyridin-3-yl)amino)-5- fluoronicotinamide [Example 006-194] |
| < 10 nM | – | 65 to 130 nM | – | C[C@H](N)[C@@H](C)Nc1nc(Nc2ccc3c(cnn3C)c2)c(C(N)=O)cc1F (racemic) [Example 006-109, 6-(((2R,3S)-3-aminobutan-2-yl)amino)-5-fluoro-2-((1-methyl-1H-indazol-5-yl)amino)nicotinamide 6-(((2S,3R)-3-aminobutan-2-yl)amino)-5-fluoro-2-((1-methyl-1H-indazol-5-yl)amino)nicotinamide] |
| < 10 nM | – | 65 to 130 nM | – | C[C@H](N)[C@@H](C)Nc1nc(Nc2cccc(-n3nccn3)c2)c(C(N)=O)cc1F (racemic) [Example 006-111, 2-((3-(2H-1,2,3-triazol-2-yl)phenyl)amino)-6-(((2R,3S)-3-aminobutan-2-yl)amino)-5-fluoronicotinamide 2-((3-(2H-1,2,3-triazol-2-yl)phenyl)amino)-6-(((2S,3R)-3-aminobutan-2-yl)amino)-5-fluoronicotinamide] |
| < 10 nM | – | 65 to 130 nM | – | COc1cc(Nc2nc(N[C@H](C)[C@H](C)N)c(F)cc2C(N)=O)cc(OC)n1 (racemic) [Example 006-112, 6-(((2R,3S)-3-aminobutan-2-yl)amino)-2-((2,6-dimethoxypyridin-4-yl)amino)-5-fluoronicotinamide 6-(((2S,3R)-3-aminobutan-2-yl)amino)-2-((2,6-dimethoxypyridin-4-yl)amino)-5-fluoronicotinamide] |
| < 10 nM | – | 130 to 200 nM | – | C[C@H](N)[C@@H](C)Nc1nc(Nc2cccc(-n3ccnn3)c2)c(C(N)=O)cc1F (racemic) [Example 006-121, 2-((3-(1H-1,2,3-triazol-1-yl)phenyl)amino)-6-(((2R,3S)-3-aminobutan-2-yl)amino)-5-fluoronicotinamide 2-((3-(1H-1,2,3-triazol-1-yl)phenyl)amino)-6-(((2S,3R)-3-aminobutan-2-yl)amino)-5-fluoronicotinamide] |
| < 10 nM | – | < 65 nM | – | COc1ccc2cc(Nc3nc(N[C@H](C)[C@H](C)N)c(F)cc3C(N)=O)cnc2c1 (racemic) [Example 006-174, 6-(((2R,3S)-3-aminobutan-2-yl)amino)-5-fluoro-2-((7-methoxyquinolin-3-yl)amino)nicotinamide 6-(((2S,3R)-3-aminobutan-2-yl)amino)-5-fluoro-2-((7-methoxyquinolin-3-yl)amino)nicotinamide] |
| – | – | – | ≤ 200 nM | COC[C@H](N)CNc1nc(Nc2ccc3ncccc3c2)c(C(N)=O)cc1F [Example 14-6, 6-(((2R)-2-amino-3-methoxypropyl)amino)-5-fluoro-2-(quinolin-6-ylamino)nicotinamide] |
| – | – | – | ≤ 200 nM | CC(C)C[C@H](N)CNc1nc(Nc2ccc3ncccc3c2)c(C(N)=O)cc1F [Example 14-10, 6-(((2S)-2-amino-4-methylpentyl)amino)-5-fluoro-2-(quinolin-6-ylamino)nicotinamide] |
| – | – | – | ≤ 200 nM | COc1cc(Nc2nc(N[C@@H]3CCCC[C@@H]3N)c(F)cc2C(N)=O)cc(OC)c1 [Example 22-5, 6-((1R,2S)-2-aminocyclohexylamino)-2-(3,5-dimethoxyphenylamino)-5-fluoronicotinamide] |
